Measurements as given in patent publication US10961235B2, “Crystalline form of masitinib” (Sandoz AG, priority 2017, dated 2021).
Read-outs that look alike come from different tables or passages of the source. Blank lines part the entries; values can stand above or below the compound they belong to.

Experiments:
[1] = Storage stability of crystalline form M, polymorphic conversion checked by XRPD; type: physicochemical; conditions: for conversion to crystal form I by XRPD / storage stability: 8 weeks at 40° C./75% relative humidity
Procedure: X-Ray powder diffraction (XRPD) was performed with a PANalytical X'Pert PRO diffractometer equipped with a theta/theta coupled goniometer in transmission geometry, Cu—Kα1,2 radiation (wavelength 0.15419 nm) with a focusing mirror and a solid state PIXcel detector. Diffractograms were recorded at a tube voltage of 45 kV and a tube current of 40 mA, applying a stepsize of 0.013° 2-Theta with 40 s per step (255 channels) in the angular range of 2° to 40° 2-Theta at ambient conditions.

[2] = Gravimetric moisture sorption (GMS) of crystalline forms of masitinib mesylate; type: physicochemical
Procedure: Gravimetric moisture sorption/desorption (GMSD) isotherms were recorded with an SPSx-1μ moisture sorption analyzer (ProUmid, Ulm). The measurement cycle was started at ambient relative humidity (RH) of 25%. Relative humidity was then decreased to 5% RH in 5% steps, followed by a further decrease to 3% RH and to 0% RH. Afterwards RH was increased from 0% to 80% RH in a sorption cycle in 5% steps.
The time per step was set to a minimum of 2 hours and a maximum of 6 hours. If an equilibrium condition with a constant mass of ±0.01% within 1 hour was reached before the maximum time for all examined samples the sequential humidity step was applied before the maximum time of 6 hours. If no equilibrium was achieved the consecutive humidity step was applied after the maximum time of 6 hours. The temperature was 25±0.1° C.

[3] = Bulk density; type: physicochemical
[4] = cited from earlier work
[5] = cited from earlier work; for hygroscopicity (in words): as described in prior filings
[6] = GMS, 15 to 80% RH, form A comparison (same range as FIG. 6 of WO2017/016512A1); cited from earlier work

conversion to crystal form I by XRPD / storage stability ([1]; listed as crystal form M): storage stable
time remaining stable as crystalline form M ([1]; 30° C. and 65% relative humidity): at least 8 weeks
time remaining stable as crystalline form M ([1]; 40° C. and 75% relative humidity): at least 8 weeks
hygroscopicity compared with form A [2]: less hygroscopic than form A
Mass change (water uptake / weight gain) in the range of from 15-80% RH ([2]; GMS, 15 to 80% RH, 25±0.1° C., form M, listed as Crystalline form M): 0.5-1.3 w-%
dependence of water content on relative humidity ([2]; range of 15% RH and 80% RH): relatively constant water content
bulk density [3]: 0.14 g/mL
Compound: masitinib mesylate [form M]
conversion to crystal form I by XRPD after storage ([1]; 8 weeks at 30° C./60% relative humidity): did not convert to or show detectable traces of crystal form I
conversion to crystal form I by XRPD / storage stability ([1]; listed as crystalline form M): did not convert to or show detectable traces of crystal form I
polymorphic conversion on storage ([1]; at or below 40° C., relative humidity 15% RH to 75% RH): does not result in polymorphic conversion

Compound: masitinib mesylate [DRX2]
temperatures at which problems with polymorphic conversion occur ([4]; response to the eESR / EP2886543 A1, DRX2 to DRX1 upon heating): above 25 °C

Compound: masitinib mesylate [crystal form I]
temperatures at which thermodynamically stable ([4]; WO 2008/098949 A2): below 200 °C
water uptake in the range from 0% RH to 80% RH ([5]; 0% RH to 80% RH, described for DRX I): 4.3 w-%
behaviour at 80% relative humidity ([5]; 80% RH, WO 2008/098949 A2): remains dry
hygroscopicity (in words) ([5]; listed as DRX1): mildly hygroscopic
weight increase between 0% RH and 80% RH ([5]; response to the eESR, EP 11170200.7): 4.3 weight-%

Compound: masitinib mesylate [form A]
hygroscopicity (in words) ([5]; listed as crystal form A): remarkably reduced compared to DRX1
reversible loss of water below 10% RH ([5]; moisture sorption/desorption curves, FIG. 6 of WO2017/016512A1): about 5 weight-%
Mass change (water uptake) in the range of from 15-80% RH [6]: 4.0-6.0 w-%

Compound: CS(=O)(=O)O.Cc1ccc(NC(=O)c2ccc(CN3CCN(C)CC3)cc2)cc1Nc1nc(-c2cccnc2)cs1 [form H, salt of masitinib with methane sulfonic acid]
hygroscopicity (in words) [5]: low hygroscopicity
